Reference: publication PMC10329798 (Virology Journal, 2023)
Like-named read-outs stand apart in the source and are kept apart here.

What was measured:
[1] = molecular target: T1, SARS-CoV-2 E protein (2-E) (Severe acute respiratory syndrome coronavirus 2, UniProt P0DTC4); assay: cell-based
[2] = molecular target: T1, SARS-CoV-2 E protein (2-E); assay: cell-based; type: biochemical
SARS-CoV E protein (1-E) = conditions: 1-E protein, cell viability assay; read-out: IC50, inhibition data from published 1-E protein; cited from earlier work
SARS-CoV-2 = conditions: in vitro, Vero-h/SLAM cells; cited from earlier work
[3] = read-out: IC50, cell viability assay, 2-E protein
[4] = read-out: IC50, patch-clamp electrophysiology, 2-E

T1 sequence (P0DTC4 whole entry): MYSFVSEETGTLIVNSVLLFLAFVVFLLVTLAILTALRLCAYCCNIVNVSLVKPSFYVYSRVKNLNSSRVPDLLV

## NC(N)=NC(=O)c1nc(Cl)c(N2CCCCCC2)nc1N [HMA, 5-(N,N-hexamethylene)amiloride]
[1]; [3]
  IC50: 1500 ± 300 nM
[2]; [4]
  IC50: 1.9 ± 0.3 nM
HEK293 cells
  Concentration with cytotoxic effects / onset of cell toxicity: > 10 µM
SARS-CoV E protein (1-E)
  IC50: 2600 ± 400 nM

## ivermectin
[1]
  Inhibition of the 2-E protein in the cell viability assay: showed inhibiting effects
[2]; [4]
  IC50: 0.88 ± 0.1 nM
SARS-CoV-2
  Reduction in SARS-CoV-2 viral RNA: 5000 fold

## NC12CC3CC(CC(C3)C1)C2 [amantadine]
[1]; [3]
  IC50: 89000 ± 27000 nM
[2]; [4]
  IC50: 24.1 ± 6.5 nM
HEK293 cells
  Concentration with cytotoxic effects / onset of cell toxicity: not cytotoxic
SARS-CoV E protein (1-E)
  IC50: 77000 ± 13000 nM

## CC1=C[C@H]2C(=O)O[C@H]3C[C@@H](C/C=C(\C)C[C@@H](C)/C=C/C=C4\CO[C@H]([C@@H]1O)[C@@]42O)O[C@]1(C3)C[C@H](O)[C@H](C)[C@@H](/C(C)=C/C(C)C)O1 [nemadectin]
[2]
  IC50, patch-clamp electrophysiology, 2-E: not active
[2]; any of the tested concentrations
  Inhibition of 2-E protein-mediated currents: did not observe inhibition
HEK293 cells; human
  Concentration with cytotoxic effects / onset of cell toxicity: 2 µM

## CC1=C[C@H]2C(=O)O[C@H]3C[C@@H](C/C=C(\C)C[C@@H](C)/C=C/C=C4\CO[C@H]([C@@H]1O)[C@@]42O)O[C@@]1(CC[C@H](C)[C@@H](C)O1)C3 [milbemycin]
[2]
  IC50: 2.21 ± 0.65 nM
HEK293 cells; human
  Concentration with cytotoxic effects / onset of cell toxicity: ~ 10 µM

## CCC(C)C1OC2(CCC1C)CC1CC(CC=C(C)C(O)C(C)C=CC=C3COC4C(O)C(C)=CC(C(=O)O1)C34O)O2 (stereo not drawn) [ivermectin aglycon]
[2]; [4]
  IC50: 5 ± 1.3 nM

## CC(N)C12CC3CC(CC(C3)C1)C2 (stereo not drawn) [rimantadine]
[1]
  IC50: 8900 ± 2200 nM
[2]
  IC50: 3.6 ± 0.6 nM
HEK293 cells
  Concentration with cytotoxic effects / onset of cell toxicity: not cytotoxic
SARS-CoV E protein (1-E)
  IC50: 10900 ± 3300 nM
